From paper PMC11783601, “Analogue-Sensitive Inhibition of Histone Demethylases Uncovers Member-Specific Function in Ribosomal Protein Synthesis” (Journal of the American Chemical Society, 2025)
Entries after “also recorded” stand apart in the source; their conditions may differ.

System: rRNA transcription in HEK293T cells
Assay: Fixed cell immunofluorescence staining for H3K9me3 and 5FU (BrdU antibody) incorporation into rRNA
Type: cell-based, human
Method: Upregulation of protein synthesis is linked to enhanced ribosomal biogenesis driven by the expression and coordinated assembly of the ribosomal RNAs (rRNAs). To systematically investigate the role of KDM4A in rRNA activation, HEK293T cells expressing wild type KDM4A or asKDM4A were briefly (∼15 min) exposed to 5-fluorouridine (5FU), a uridine analogue known to rapidly incorporate into nascent RNAs, in the presence of cell-permeable n-octyl IOX1 or NOL derivative 6B, respectively (Figure 6A). Given that there are about 350 copies of rDNA in the human genome, brief exposure to 5FU ensures the labeling of rRNAs primarily.[49][52] The cells were then fixed and stained with H3K9me3 antibody, along with BrdU antibody which recognizes 5FU, to examine any correlation between histone demethylation and rRNA expression using high-resolution immunofluorescence imaging. Both wild type KDM4A and F185A mutant led to robust increase in 5FU incorporated rRNA levels, while reduction in H3K9me3 signals was observed (Figures 6B,C and S36). […]
19. Fixed cell immunofluorescence staining
Cells were grown on poly-D-lysine (Gibco A3890401) treated glass coverslips (ThermoScientific 12-545-81P) overnight and transfected the next day with 300 ng KDM4A WT/F185A using […] of lipofectamine 2000 (Invitrogen 11668019). The cells were incubated overnight and treated with indicated inhibitor at varying time points. When probing rRNA transcription, cells were incubated with 2 mM 5-Fluorouridine (Sigma F5130) for 15 minutes. […]
20. Quantification of fixed-cell imaging data
TIF images obtained from confocal microscopy experiments were quantified in ImageJ. […]
The mean fluorescent signal was then measured. […]
For the time dependent imaging, cells containing the transfected KDM4A mutant were identified by their HA signal. […] The mean signal was then measured for H3K9me3 or BrdU only within the cells expressing the KDM4A mutant. To compare changes in H3K9me3 or BrdU between trials, the quantification values were normalized to the mean signal at t=0. […]

Row | Compound | 5FU incorporation into rRNA (HEK293T cells expressing F185A) | H3K9me3 levels (HEK293T cells expressing F185A) | histone demethylation and 5FU incorporation (HEK293T cells overexpressing wild type KDM4A, 10 µM n-octyl IOX1)
1 | CC(C)CC(NC(=O)C(=O)OCc1cccc(C(F)(F)F)c1)C(=O)O [6B, L-Leu TFMB-ester NOG] | attenuated 5FU incorporation in a dose–response manner | re-emergence of H3K9me3 levels | –
2 | CCCCCCCCOC(=O)c1ccc(O)c2ncccc12 [n-octyl IOX1] | – | – | inhibited; also recorded: repressed histone demethylation and 5FU incorporation
